Data on 17 molecules can be found in patent US20150150893A1, “ANDROGRAPHOLIDE ANALOGS AND THEIR USE FOR MEDICATION” (LIAONING LIFENG SCIENTIFIC & TECHNOLOGY DEVELOPMENT COMPANY …, priority 2012, published 2015).

Where two headings read alike, the source gives them in different places.

Common to all, as to assay type: cell-based
The subject of one assay is many virus. In words: Antivirus studies in vitro, summary over the virus panel. The conditions noted are these: read-out: EC50 against many virus. The protocol:
compounds were diluted to 20 mg/mL in DMSO then prepared in for log 10 dilutions of 100 μg/mL down to 0.1 μg/mL) in MEM solution with 50 μg/mL gentamicin and 2% FBS. Each dilution was added to 5 wells of a 96-well plate with 80-100% confluent cells. Three wells of each dilution were infected with virus, and two wells remained uninfected as toxicity controls. The multiplicity of infection (MOI) was as low as possible to achieve CPE within 3-5 days of incubation. A known active compound was tested in parallel as a control. After untreated virus control wells reached maximum cytopathic effect (CPE), each well was scored microscopically. Plates were then stained with neutral red dye for approximately 2 hours, then supernatant dye was removed from the wells and the incorporated dye was extracted in 50:50 Sorensen citrate buffer/ethanol, then the optical density was read on a spectrophotometer.

Another assay relates to Rift Valley fever virus. In words: microbe, parasite or virus in culture.
The subject of another assay is SARS coronavirus. In words: microbe, parasite or virus in culture. Conditions: Severe acute respiratory syndrome coronavirus.
For the next assay, the system named is Influenza A virus H1N1. In words: microbe, parasite or virus in culture. The conditions noted are these: H1N1, read-out: In-Vitro Antiviral Screening Result (EC50) H.
In assay [1] the test system is Japanese encepahalitis virus. The conditions noted are these: read-out: In-Vitro Antiviral Screening Result (EC50) C.
For assay [2], the system named is Venezuelan equine encephalitis virus. In words: microbe, parasite or virus in culture. The conditions noted are these: read-out: In-Vitro Antiviral Screening Result (EC50) G.
Where [3] appears, read: read-out: In-Vitro Antiviral Screening Result (EC50) E.
Setting [4] is: read-out: In-Vitro Antiviral Screening Result (EC50) F.

Turning to `CC(NC1CC2[C@](C)(CC[C@@H](O)[C@@]2(C)CO)C(/C=C/C2=CC(=C\c3cnc(N4CCN(C)CC4)nc3)/OC2=O)C12CO2)C(=O)NC1=NCC=N1` (stereo partly shown) [Example 23, 7-((2-((4H-imidazol-2-yl)amino)-1-oxopropan-2-yl)amino)-11,12-dedihydro-14-deoxy-(E)-15-((2-(4-methylpiperazin-1-yl)pyrimidin-5-yl)methylene)-8,17-epoxyandrographolide], the EC50 with many virus was below 50 µg/mL; in the assay on Rift Valley fever virus (setting [3]) it was below 50 µg/mL; with SARS coronavirus (setting [4]), below 50 µg/mL; in the assay on Influenza A virus H1N1, above 100 µg/mL; in assay [1] it was below 50 µg/mL; in assay [2], below 50 µg/mL.

For the molecule `C=C1CCC2C(C)(CO)C(O)CCC2(C)C1/C=C/C1=CC(=C\c2ccc(Cl)cc2Cl)/OC1=O` (stereo not shown) [Example 35, 11,12-dedihydro-14-deoxy-(E)-15-(2,4-dichlorobenzylidene)andrographolide], the EC50 in the assay on many virus is below 50 µg/mL; with Rift Valley fever virus (setting [3]), above 100 µg/mL; in the assay with SARS coronavirus (setting [4]), below 50 µg/mL; in the assay with Influenza A virus H1N1 it was below 50 µg/mL; in assay [1] it was below 50 µg/mL; in assay [2], below 50 µg/mL.

For `C=C1CCC2[C@](C)(CC[C@@H](O)[C@@]2(C)CO)C1/C=C/C1=CC(=C\c2ccc(N(C)C)cc2)/OC1=O` (stereo partly shown) [Example 37, 11,12-dedihydro-14-deoxy-15-(4-(dimethylamino)benzylidene)andrographolide], the EC50 is below 1 µg/mL with Rift Valley fever virus (read-out: EC50 against virus E); below 50 µg/mL in the assay on Rift Valley fever virus (setting [3]); below 1 µg/mL with SARS coronavirus (read-out: EC50 against virus F); below 50 µg/mL in the assay on SARS coronavirus (setting [4]); below 50 µg/mL in the assay with Influenza A virus H1N1; below 50 µg/mL in assay [1]. For the same molecule, the EC50 in assay [2] was below 50 µg/mL.

As to `C[C@]12CC[C@@H](O)[C@@](C)(CO)C1CCC1(CO1)C2/C=C/C1=CC(=C\c2cnc(N)[nH]c2=O)/OC1=O` (stereo partly shown) [Example 38, 11,12-dedihydro-14-deoxy-15-(2-amino-5-oxygen-3H-pyrimidine-5-ylmethylene)-8,17-epoxyandrographolide], the EC50 in the assay with many virus is below 50 µg/mL; in the assay with Rift Valley fever virus (setting [3]), above 100 µg/mL; with SARS coronavirus (setting [4]), below 50 µg/mL; in the assay with Influenza A virus H1N1 it was below 100 µg/mL; in assay [1] it was below 100 µg/mL; in assay [2] it was below 100 µg/mL.

In the case of `C=C1CCC2C(C)(CO)C(O)CCC2(C)C1/C=C/C1=CC(=C\c2ccc(OC3OC(CO)C(O)C(O)C3O)cc2)/OC1=O` (stereo not shown) [Example 40, 11,12-dedihydro-14-deoxy-15-(4-((3,4,5-trihydroxy-6-(hydroxymethyl)tetrahydro-2H-pyran-2-yl)oxy)benzylidene)andrographolide], the EC50 in the assay with many virus is below 50 µg/mL; in the assay on Rift Valley fever virus (setting [3]), above 100 µg/mL; in the assay on SARS coronavirus (setting [4]), below 50 µg/mL; in the assay on Influenza A virus H1N1, above 100 µg/mL; in assay [1], below 100 µg/mL; in assay [2], above 100 µg/mL.

In the case of `COc1cc(/C=C2C=C(/C=C/C3C4(CCC5[C@]3(C)CC[C@@H](O)[C@@]5(C)CO)CO4)C(=O)O\2)cc([N+](=O)[O-])c1O` (stereo partly shown) [Example 41, 11,12-dedihydro-14-deoxy-(E)-15-(4-hydroxy-3-methoxy-5-nitrobenzylidene)-8,17-epoxyandrographolide], the EC50 with many virus was below 50 µg/mL; in the assay with Rift Valley fever virus (setting [3]), below 50 µg/mL; in the assay with SARS coronavirus (setting [4]), below 100 µg/mL; in the assay with Influenza A virus H1N1 it was below 100 µg/mL; in assay [1] it was above 100 µg/mL; in assay [2], above 100 µg/mL.

As for `C=C1CCC2[C@](C)(CC[C@@H](O)[C@@]2(C)CO)C1/C=C/C1=CC(=C\c2ccc(N(C)C)cc2O)/OC1=O` (stereo partly shown) [Example 44], the EC50 in the assay on many virus was below 50 µg/mL; in the assay on Rift Valley fever virus (setting [3]), above 100 µg/mL; in the assay with SARS coronavirus (setting [4]), below 50 µg/mL; in the assay with Influenza A virus H1N1 it was below 100 µg/mL; in assay [1] it was above 100 µg/mL; in assay [2], above 100 µg/mL.

Take `C=C1CCC2C3(C)COC(c4ccc(OC5OC(CO)C(O)C(O)C5O)cc4)OC3CCC2(C)C1C/C=C1/C(=O)OCC1O` (stereo not shown) [Example 45, (E)-3-(2-(6a,10b-dimethyl-8-methylene-3-(4-((3,4,5-trihydroxy-6-(hydroxymethyl)tetrahydro-2H-pyran-2-yl)oxy)phenyl)decahydro-1H-naphtho[2,1-d][1,3]dioxin-7-yl)ethylidene)-4-hydroxydihydrofuran-2(3H)-one]: the EC50 was below 50 µg/mL in the assay on many virus; below 50 µg/mL with Rift Valley fever virus (setting [3]); below 50 µg/mL in the assay on SARS coronavirus (setting [4]); above 100 µg/mL in the assay on Influenza A virus H1N1; below 50 µg/mL in assay [1]; below 50 µg/mL in assay [2].

For `C=C1CCC2[C@](C)(CC[C@@H](O)[C@@]2(C)CO)C1/C=C/C1=CC(=C\c2cn(C)c3nc(N)ncc23)/OC1=O` (stereo partly shown) [Example 46, 11,12-dedihydro-14-deoxy-(E)-15-((2-amino-7-methyl-7H-pyrrolo[2,3-d]pyrimidin-5-yl)methylene)andrographolide], the EC50 with many virus is below 50 µg/mL; in the assay on Rift Valley fever virus (setting [3]) it was below 50 µg/mL; in the assay on SARS coronavirus (setting [4]), below 50 µg/mL; in the assay on Influenza A virus H1N1, below 100 µg/mL; in assay [1] it was below 100 µg/mL; in assay [2] it was below 100 µg/mL.

Regarding `C=C1CCC2[C@](C)(CC[C@@H](O)[C@@]2(C)CO)C1/C=C/C1=CC(=C\c2cnc(N)[nH]c2=O)/OC1=O` (stereo partly shown) [Example 50, 11,12-dedihydro-14-deoxy-15-(2-amino-4-oxo-3H-pyrimidine-5-ylmethylene)andrographolide], the 50% effective concentration (EC50) with many virus was below 50 µg/mL; in the assay on Rift Valley fever virus (setting [3]), below 100 µg/mL; with SARS coronavirus (setting [4]), below 100 µg/mL; with Influenza A virus H1N1 it was below 50 µg/mL; in assay [1], below 50 µg/mL; in assay [2], below 50 µg/mL.

For `C=C1CCC2C(C)(CO)C(O)CCC2(C)C1CC(Nc1cccc(Cl)c1)C1=CCOC1=O` (stereo not shown) [Example 53, 12-((3-chlorophenyl)amino)-14-deoxyandrographolide], the 50% effective concentration (EC50) with Rift Valley fever virus (read-out: EC50 against virus E) was below 1 µg/mL; with Rift Valley fever virus (setting [3]) it was below 10 µg/mL; in the assay with SARS coronavirus (read-out: EC50 against virus F) it was below 1 µg/mL; with SARS coronavirus (setting [4]) it was below 50 µg/mL; in the assay on Influenza A virus H1N1, below 50 µg/mL; in assay [1] it was below 50 µg/mL. Also, the 50% effective concentration (EC50) in assay [2] was below 50 µg/mL.

With `C=C1CCC2C(C)(CO)C(O)CCC2(C)C1CC(NC12CN3CN(CN(C3)C1)C2)C1=CCOC1=O` (stereo not shown) [Example 57, 12-((1s,3s,5s)-1,3,5-triazaadamantan-7-ylamino)-14-deoxyandrographolide], the EC50 was below 1 µg/mL in the assay with Rift Valley fever virus (read-out: EC50 against virus E); below 50 µg/mL in the assay with Rift Valley fever virus (setting [3]); below 1 µg/mL with SARS coronavirus (read-out: EC50 against virus F); below 50 µg/mL in the assay on SARS coronavirus (setting [4]); below 50 µg/mL in the assay on Influenza A virus H1N1; below 50 µg/mL in assay [1]. In addition, in assay [2], the EC50 was below 50 µg/mL.

On to `Cn1cc(/C=C2C=C(/C=C/C3C4(CCC5[C@]3(C)CC[C@@H](O)[C@@]5(C)CO)CO4)C(=O)O\2)c2cnc(N)nc21` (stereo partly shown) [Example 59, 11,12-dedihydro-14-deoxy-(E)-15-((2-amino-7-methyl-7H-pyrrolo[2,3-d]pyrimidin-5-yl)methylene)-8,17-epoxyandrographolide], for which the EC50 in the assay on many virus was below 50 µg/mL; in the assay with Rift Valley fever virus (setting [3]), below 50 µg/mL; with SARS coronavirus (setting [4]) it was below 50 µg/mL; with Influenza A virus H1N1 it was below 100 µg/mL; in assay [1], above 100 µg/mL; in assay [2], above 100 µg/mL.

Take `C=C1CCC2[C@](C)(CC[C@@H](O)[C@@]2(C)CO)C1/C=C/C1=CC(=C\C2=CN3CC(=O)N(C)C3C=C2)/OC1=O` (stereo partly shown) [Example 63, 11,12-dedihydro-14-deoxy-(E)-15-((1-methyl-2-oxo-1,2,3,8a-tetrahydroimidazo[1,2-a]pyridin-6-yl)methylene)andrographolide]: the EC50 in the assay on many virus is below 50 µg/mL; in the assay on Rift Valley fever virus (setting [3]) it was below 50 µg/mL; in the assay on SARS coronavirus (setting [4]), below 50 µg/mL; in the assay with Influenza A virus H1N1, below 50 µg/mL; in assay [1] it was below 100 µg/mL; in assay [2], below 100 µg/mL.

Turning to `C=C1CCC2[C@](C)(CC[C@@H](O)[C@@]2(C)CO)C1/C=C/C1=CC(=C\c2cnc(N3CCCC3CO)nc2)/OC1=O` (stereo partly shown) [Example 65, 11,12-dedihydro-14-deoxy-(E)-15-((2-(2-(hydroxymethyl)pyrrolidin-1-yl)pyrimidin-5-yl)methylene)andrographolide], the EC50 in the assay on many virus is below 50 µg/mL; in the assay with Rift Valley fever virus (setting [3]), below 50 µg/mL; in the assay with SARS coronavirus (setting [4]) it was below 50 µg/mL; in the assay with Influenza A virus H1N1, above 100 µg/mL; in assay [1] it was above 100 µg/mL; in assay [2], below 100 µg/mL.

For the molecule `CCN(CC)c1ccc(/C=C2C=C(/C=C/C3C4(CCC5[C@]3(C)CC[C@@H](O)[C@@]5(C)CO)CO4)C(=O)O\2)c(O)c1` (stereo partly shown) [Example 66], the EC50 is below 50 µg/mL with many virus; below 100 µg/mL in the assay on Rift Valley fever virus (setting [3]); below 100 µg/mL in the assay on SARS coronavirus (setting [4]); below 100 µg/mL in the assay on Influenza A virus H1N1; below 50 µg/mL in assay [1]; below 50 µg/mL in assay [2].

For `C=C1C(N2CCOCC2)CC2[C@](C)(CC[C@@H](O)[C@@]2(C)CO)C1/C=C/C1=CCOC1=O` (stereo partly shown) [Example 83], the EC50 in the assay on Rift Valley fever virus (read-out: EC50 against virus E) was below 1 µg/mL; in the assay with Rift Valley fever virus (setting [3]) it was below 50 µg/mL; in the assay on SARS coronavirus (read-out: EC50 against virus F), below 1 µg/mL; with SARS coronavirus (setting [4]), below 50 µg/mL; in the assay with Influenza A virus H1N1, below 50 µg/mL; in assay [1], below 50 µg/mL. Moreover, the EC50 in assay [2] is below 50 µg/mL.
